One assay concerns Erwinia amylovora. Kind of assay: Inhibition zone assay (agar plate). Type of assay: cell-based. The settings on record: for Inhibition zones: in mm diameter: 50 nanomoles per well (3 mm diameter).
The test system of the next assay is Shigella dysenteriae. The format is cell-based. The conditions noted are these: for Inhibition zones: in mm diameter: 50 nanomoles per well (3 mm diameter).
For assay [1], the system named is Agrobacterium tumefaciens. In words: Inhibition zone assay (agar plate). The format is cell-based. The settings on record: 50 nanomoles per well (3 mm diameter).
For a further assay, the system named is E. coli D22. The format is cell-based. The conditions noted are these: 50 nanomoles per well (3 mm diameter).
The next assay concerns Enterobacter cloacae. In words: Inhibition zone assay (agar plate). The format is cell-based. The settings on record: for Inhibition zones: in mm diameter: 50 nanomoles per well (3 mm diameter).
The next assay has as its system Salmonella typhimurium. In words: Inhibition zone assay (agar plate). The format is cell-based. The conditions noted are these: for Inhibition zones: in mm diameter: 50 nanomoles per well (3 mm diameter).
The next assay concerns Salmonella typhi. Type of assay: cell-based. The settings on record: for Inhibition zones: in mm diameter: 50 nanomoles per well (3 mm diameter).
Assay [2] concerns Escherichia coli (ATCC11775). In words: Inhibition zone assay (agar plate). The format is cell-based. The conditions noted are these: for Inhibition zones: in mm diameter: 50 nanomoles per well (3 mm diameter).
The subject of the next assay is Klebsiella pneumoniae. Kind of assay: Inhibition zone assay (agar plate). The settings on record: for Inhibition zones: in mm diameter: 50 nanomoles per well (3 mm diameter). The format is cell-based.
Another assay relates to Pseudomonas syringae. Kind of assay: Inhibition zone assay (agar plate). The format is cell-based. The conditions noted are these: for Inhibition zones: in mm diameter: 50 nanomoles per well (3 mm diameter).
The subject of assay [3] is Acinetobacter calcoaceticus. Kind of assay: Inhibition zone assay (agar plate). The format is cell-based. The settings on record: 50 nanomoles per well (3 mm diameter).
The subject of the next assay is M. morganii. In words: Minimal inhibitory concentration (liquid culture). The settings on record: inoculum 400 CFU/ml; a-b = highest concentration with growth - lowest without growth.
A further assay relates to E. coli 23802. In words: Minimal inhibitory concentration (liquid culture). The settings on record: inoculum 5000 CFU/ml; a-b = highest concentration with growth - lowest without growth.
The next assay deals with E. coli 11775. In words: Minimal inhibitory concentration (liquid culture). The conditions noted are these: a-b = highest concentration with growth - lowest without growth.
The test system of the next assay is E. coli Apid^R. In words: Minimal inhibitory concentration (liquid culture). The format is cell-based. The settings on record: a-b = highest concentration with growth - lowest without growth. From the text:
For details see `Experimental Procedures`.

In the next assay the test system is Yersinia enterocolitica. In words: Inhibition zone assay (agar plate). Type of assay: cell-based. The conditions noted are these: 50 nanomoles/well, 3 mm wells.
In another assay the test system is S. typhimurium. In words: Minimal inhibitory concentration (liquid culture). The conditions noted are these: inoculum 8 × 10^6 CFU/ml; a-b = highest concentration with growth - lowest without growth.
The subject of the next assay is E. coli 25922. In words: Minimal inhibitory concentration (liquid culture). The conditions noted are these: inoculum 1100 CFU/ml; a-b = highest concentration with growth - lowest without growth.
For another assay, the system named is Morganella morganii. In words: Inhibition zone assay (agar plate). The settings on record: 50 nanomoles/well, 3 mm wells. Type of assay: cell-based.
For a further assay, the system named is Rhizobium meliloti. In words: Inhibition zone assay (agar plate). The format is cell-based. The conditions noted are these: 50 nanomoles/well, 3 mm wells.
Another assay has as its system A. calcoaceticus. Kind of assay: Minimal inhibitory concentration (liquid culture). The settings on record: inoculum 16 × 10^6 CFU/ml; a-b = highest concentration with growth - lowest without growth.
The test system of a further assay is Y. enterocolitica. Kind of assay: Minimal inhibitory concentration (liquid culture). The settings on record: inoculum 5000 CFU/ml; a-b = highest concentration with growth - lowest without growth.
[4] abbreviates: agar plate, 50 nanomoles/well, 3 mm wells.

Residues, ends and D or L forms follow the SMILES beside them. Some results are limits rather than exact numbers.

With `CC(C)C[C@H](NC(=O)[C@H](CCCNC(=N)N)NC(=O)[C@@H]1CCCN1C(=O)[C@H](Cc1c[nH]cn1)NC(=O)[C@@H]1CCCN1C(=O)[C@@H]1CCCN1C(=O)[C@H](CCCNC(=N)N)NC(=O)[C@@H]1CCCN1C(=O)[C@@H]1CCCN1C(=O)[C@@H](NC(=O)[C@H](CCC(N)=O)NC(=O)[C@H](CCC(N)=O)NC(=O)[C@@H]1CCCN1C(=O)[C@H](CCCNC(=N)N)NC(=O)[C@@H]1CCCN1C(=O)[C@H](CCCCN)NC(=O)[C@@H](N)Cc1ccccc1)C(C)C)C(=O)O` [HoFP, F K P R P Q Q V P P R P P H P R L] (H-FKPRPQQVPPRPPHPRL-OH), the “Inhibition zones: in mm diameter” value with Erwinia amylovora stood at 11 mm; in the assay with Shigella dysenteriae, 18 mm; in [1] it was 11 mm; with E. coli D22 it was 16 mm; with Enterobacter cloacae it was 14 mm; in the assay with Salmonella typhimurium, 12 mm. The “Inhibition zones: in mm diameter” value with Salmonella typhi worked out at 13 mm; in assay [2], 13 mm; with Klebsiella pneumoniae, 14 mm; in the assay with Pseudomonas syringae it was 12 mm.
As for `CC[C@H](C)[C@H](NC(=O)[C@@H]1CCCN1C(=O)[C@@H](NC(=O)[C@H](CCC(N)=O)NC(=O)[C@@H]1CCCN1C(=O)[C@H](CO)NC(=O)[C@@H]1CCCN1C(=O)[C@H](CCCNC(=N)N)NC(=O)[C@@H](N)CO)C(C)C)C(=O)N[C@@H](CCCNC(=N)N)C(=O)N1CCC[C@H]1C(=O)N[C@@H](CO)C(=O)N[C@@H](CCC(N)=O)C(=O)N1CCC[C@H]1C(=O)N[C@@H](CCCNC(=N)N)C(=O)N1CCC[C@H]1C(=O)N[C@@H](CCC(N)=O)C(=O)N1CCC[C@H]1C(=O)NCC(=O)N[C@@H](CCCCN)C(=O)N1CCC[C@H]1C(=O)N[C@@H](CCCNC(=N)N)C(=O)N1CCC[C@H]1C(=O)N[C@@H](CCC(N)=O)C(=O)N[C@@H](CCC(N)=O)C(=O)N[C@H](C(=O)N1CCC[C@H]1C(=O)N1CCC[C@H]1C(=O)N[C@@H](CCCNC(=N)N)C(=O)N1CCC[C@H]1C(=O)N1CCC[C@H]1C(=O)N[C@@H](Cc1c[nH]cn1)C(=O)N1CCC[C@H]1C(=O)N[C@@H](CCCNC(=N)N)C(=O)N[C@@H](CC(C)C)C(=O)O)C(C)C` [PAB-GP, SRPSPQVPIRPSQPRPQPGKPRPQQVPPRPPHPRL] (H-SRPSPQVPIRPSQPRPQPGKPRPQQVPPRPPHPRL-OH), the “Inhibition zones: in mm diameter” value is 5 mm in the assay on Erwinia amylovora; 11 mm with Shigella dysenteriae; 8 mm in assay [1]; 9 mm in assay [3]; 14 mm in the assay on E. coli D22; 13 mm in the assay with Enterobacter cloacae. The “Inhibition zones: in mm diameter” value in the assay on Salmonella typhimurium turned out to be 6 mm; with Salmonella typhi, 13 mm; in [2], 10 mm; in the assay on Klebsiella pneumoniae, 9 mm; in the assay with Pseudomonas syringae it was 6 mm.
For the molecule `CC(C)C[C@H](NC(=O)[C@H](CCCNC(=N)N)NC(=O)[C@@H]1CCCN1C(=O)[C@H](Cc1c[nH]cn1)NC(=O)[C@@H]1CCCN1C(=O)[C@@H]1CCCN1C(=O)[C@H](CCCNC(=N)N)NC(=O)[C@@H]1CCCN1C(=O)[C@@H]1CCCN1C(=O)[C@@H](NC(=O)[C@H](CCC(N)=O)NC(=O)[C@H](CCC(N)=O)NC(=O)[C@@H]1CCCN1C(=O)[C@@H](N)CCCNC(=N)N)C(C)C)C(=O)O` [Ho -, Arg--Pro--Gln--Gln--Val--Pro--Pro--Arg--Pro--Pro--His--Pro--Arg--Leu] (H-RPQQVPPRPPHPRL-OH), the “minimal inhibitory concentration (MIC)” value with M. morganii is 10 to 20 µg/mL; in the assay with E. coli 23802, more than 40 µg/mL; with E. coli 11775 (inoculum 16 × 10^6 CFU/ml) it was 10 to 20 µg/mL; with E. coli 11775 (inoculum 1200 CFU/ml), 0.5 to 1 µg/mL; with E. coli Apid^R (inoculum 12 × 10^6 CFU/ml), more than 40 µg/mL; in the assay on E. coli Apid^R (inoculum 1000 CFU/ml), more than 40 µg/mL. The “minimal inhibitory concentration (MIC)” value in the assay with S. typhimurium is 5 to 10 µg/mL; with E. coli 25922, 10 to 20 µg/mL; with A. calcoaceticus, more than 20 µg/mL; with Y. enterocolitica, 10 to 20 µg/mL. In addition, the “inhibition zone diameter (number of plus signs)” value in the assay on Erwinia amylovora (setting [4]) is “++ ((++) 7-9 mm)”; in the assay on Shigella dysenteriae (setting [4]) it was “+ ((+) 5-6 mm)”; in the assay on Yersinia enterocolitica, “++ ((++) 7-9 mm)”; in the assay on Morganella morganii it was “++ ((++) 7-9 mm)”; with Enterobacter cloacae (setting [4]), “+ ((+) 5-6 mm)”; in the assay with Rhizobium meliloti it was “++++ ((++++) 15-19 mm)”. For the same molecule, the “inhibition zone diameter (number of plus signs)” value in the assay with Salmonella typhimurium (setting [4]) was “+ ((+) 5-6 mm)”; in the assay on Salmonella typhi (setting [4]), “+ ((+) 5-6 mm)”; in assay [2] (setting [4]), “+++ ((+++) 10-14 mm)”; in the assay with Klebsiella pneumoniae (setting [4]), “+ ((+) 5-6 mm)”; in the assay on Pseudomonas syringae (setting [4]), “+++ ((+++) 10-14 mm)”.
For `CC[C@H](C)[C@H](NC(=O)[C@@H]1CCCN1C(=O)[C@@H](NC(=O)[C@H](CCC(N)=O)NC(=O)[C@@H]1CCCN1C(=O)[C@H](CO)NC(=O)[C@@H]1CCCN1C(=O)[C@H](CCCNC(=N)N)NC(=O)[C@@H](N)CO)C(C)C)C(=O)N[C@@H](CCCNC(=N)N)C(=O)N1CCC[C@H]1C(=O)N[C@@H](CO)C(=O)N[C@@H](CCC(N)=O)C(=O)N1CCC[C@H]1C(=O)N[C@@H](CCCNC(=N)N)C(=O)N1CCC[C@H]1C(=O)N[C@@H](CCC(N)=O)C(=O)N1CCC[C@H]1C(=O)N[C@@H](Cc1ccccc1)C(=O)N[C@@H](CCCCN)C(=O)N1CCC[C@H]1C(=O)N[C@@H](CCCNC(=N)N)C(=O)N1CCC[C@H]1C(=O)N[C@@H](CCC(N)=O)C(=O)N[C@@H](CCC(N)=O)C(=O)N[C@H](C(=O)N1CCC[C@H]1C(=O)N1CCC[C@H]1C(=O)N[C@@H](CCCNC(=N)N)C(=O)N1CCC[C@H]1C(=O)N1CCC[C@H]1C(=O)N[C@@H](Cc1c[nH]cn1)C(=O)N1CCC[C@H]1C(=O)N[C@@H](CCCNC(=N)N)C(=O)N[C@@H](CC(C)C)C(=O)O)C(C)C` [PAB-FP, SRPSPQVPIRPSQPRPQPFKPRPQQVPPRPPHPRL] (H-SRPSPQVPIRPSQPRPQPFKPRPQQVPPRPPHPRL-OH), the “Inhibition zones: in mm diameter” value in the assay with Erwinia amylovora is on record as 5 mm; with Shigella dysenteriae, 12 mm; in assay [1] it was 7 mm; in [3] it was 8 mm; in the assay with E. coli D22 it was 14 mm; in the assay on Enterobacter cloacae, 11 mm. The “Inhibition zones: in mm diameter” value in the assay on Salmonella typhimurium was 7 mm; in the assay on Salmonella typhi, 13 mm; in assay [2], 10 mm; with Klebsiella pneumoniae, 8 mm.
With “SQPRPQPFKPRPQQVPPRTPHPR (SQPRPQPFKPRPQQVPPRTPHPR) [PAB-FT 12-35]”, the “Inhibition zones: in mm diameter” value in the assay on Shigella dysenteriae came to 11 mm; in the assay with E. coli D22 it was 10 mm; in the assay on Enterobacter cloacae, 11 mm; in the assay with Salmonella typhi, 5 mm; in assay [2] it was 10 mm; in the assay with Klebsiella pneumoniae, 6 mm.
For “QVPIRPSQPRPQPFKPRPQQVPPRTPHPR (QVPIRPSQPRPQPFKPRPQQVPPRTPHPR) [PAB-FT 6-35]”, the “Inhibition zones: in mm diameter” value in the assay with Shigella dysenteriae was 12 mm; in [3], 10 mm; in the assay on E. coli D22, 14 mm; with Enterobacter cloacae, 12 mm; in the assay with Salmonella typhimurium, 8 mm; in the assay on Salmonella typhi, 14 mm. The “Inhibition zones: in mm diameter” value in assay [2] is recorded as 13 mm; with Klebsiella pneumoniae, 11 mm.

These data come from patent US5466671A, “Apidaecin-type peptide antibiotics with improved activities and/or different antibacterial spectrum” (priority 1994, dated 1995).
